Consider 24 compounds from ChEMBL document CHEMBL1150463, “Identification of simpler analogs of neurotensin(913) which retain antinociceptive activity” (Bioorg Med Chem Lett, 1993).

One assay relates to Mus musculus. The experiment in a line: Antinociceptive activity using the mouse phenylquinone writhing assay with i.c.v. administration. The class given is functional. (In general: Writhing tests count abdominal constrictions after an irritant is injected.)
Assay [1] in a line: In vitro affinity for the neurotensin receptor on mouse brain membranes. The assay is classed as tissue-based.

The Ki is the dissociation constant of the complex between target and ligand, obtained from inhibition or displacement. Lower therefore signals higher affinity.

Where a SMILES comes first, the peptide text is derived from it. [ ]: non-standard residue; d: D form. The star is where a group is joined. Orn = NCCC[C@H](N)C(=O)O; Nva = CCC[C@H](N)C(=O)O; Ahx = NCCCCCC(=O)O; X1 = CC(C)CCO* Where only a bound is given, the exact number is not on record here.

H-KPYIL-OH yielded an ED50 in the assay on Mus musculus of 8 ug mouse-1. In assay [1], this compound displayed a Ki of 0.69 µM. For the compound `O=C(O)[C@H](Cc1ccc(O)cc1)NC(=O)[C@@H]1CCCN1` (H-Pro-Tyr-OH), the ED50 in the assay with Mus musculus is more than 50 ug mouse-1. Besides, in assay [1], affinity was put at a Ki of 13 µM. On the same counts, the results for `CC[C@H](C)[C@H](NC(=O)[C@H](Cc1ccc(O)cc1)NC(=O)[C@@H]1CCCN1)C(=O)N[C@@H](CC(C)C)C(=O)O` (H-PYIL-OH) are more than 50 ug mouse-1 and more than 1 µM. With `NC(N)=NCCC[C@H](N)C(=O)N1CCC[C@H]1C(=O)O` (H-Arg-Pro-OH), the ED50 with Mus musculus is more than 50 ug mouse-1. The Ki in assay [1] was more than 10 µM. The compound `CC[C@@H](C)[C@H](NC(=O)[C@H](Cc1ccc(O)cc1)NC(=O)[C@@H]1CCCN1)C(=O)O` displayed an ED50 in the assay with Mus musculus of more than 50 ug mouse-1. The compound also came in with a Ki in assay [1] of more than 1 µM. For the compound `NC(N)=NCCC[C@H](NC(=O)[C@@H](N)CCCN=C(N)N)C(=O)N1CCC[C@H]1C(=O)O` (H-Arg-Arg-Pro-OH), the ED50 result with Mus musculus is “>=500 ug mouse-1”. On the same count and under the same terms, the figure for `CC[C@H](C)[C@H](NC(=O)[C@H](Cc1ccc(O)cc1)NC(=O)[C@@H]1CCCN1C(=O)[C@H](CCCNC(=N)N)NC(=O)[C@@H](N)CCCNC(=N)N)C(=O)N[C@@H](CC(C)C)C(=O)O` is 0.092 ug mouse-1. `CC[C@@H](C)[C@H](NC(=O)[C@H](Cc1ccc(O)cc1)NC(=O)[C@@H]1CCCN1C(=O)[C@H](CCCNC(=N)N)NC(=O)[C@@H](N)CCCNC(=N)N)C(=O)N[C@@H](CC(C)C)C(=O)O` registered a Ki in assay [1] of 0.004 µM. With `CC[C@H](C)[C@H](NC(=O)[C@H](Cc1ccc(O)cc1)NC(=O)[C@@H]1CCCN1C(=O)[C@@H](N)CCCN=C(N)N)C(=O)O` (H-RPYI-OH), in the assay on Mus musculus, the ED50 result is reported as “>=50 ug mouse-1”. In assay [1], this compound yielded a Ki of more than 1 µM. On the same counts, the results for H-KPYAL-OH are more than 50 ug mouse-1 and 4.2 µM.

H-KPYIA-OH showed an ED50 with Mus musculus of more than 50 ug mouse-1. Moreover, in assay [1], the inhibition constant (Ki) was more than 10 µM. For `NC(N)=NCCC[C@H](N)C(=O)N1CCC[C@H]1C(=O)N[C@@H](Cc1ccc(O)cc1)C(=O)O` (H-Arg-Pro-Tyr-OH), in that order: 55 ug mouse-1 and more than 10 µM.

With H-KPAIL-OH, in the assay on Mus musculus, the ED50 is more than 50 ug mouse-1. The compound further yielded a Ki in assay [1] of more than 10 µM. For `CC[C@H](C)[C@H](NC(=O)[C@@H](N)Cc1ccc(O)cc1)C(=O)N[C@@H](CC(C)C)C(=O)O`, in that order: more than 50 ug mouse-1 and more than 10 µM.

In the assay with Mus musculus, `NC(N)=NCCC[C@H](NC(=O)[C@@H](N)CCCN=C(N)N)C(=O)O` (H-Arg-Arg-OH) showed an ED50 of more than 50 ug mouse-1. Besides, the Ki in assay [1] is more than 100 µM. In assay [1], `CC[C@H](C)[C@H](NC(=O)[C@H](Cc1ccc(O)cc1)NC(=O)[C@@H]1CCCN1C(=O)[C@@H](N)CCCCN)C(=O)OCCC(C)C` (H-KPYI-X1) registered a Ki of more than 10 µM. Consider `CC[C@H](C)[C@H](NC(=O)[C@H](Cc1ccc(O)cc1)NC(=O)[C@@H]1CCCN1C(=O)CCCCCN)C(=O)N[C@@H](CC(C)C)C(=O)O` (H-[Ahx]PYIL-OH), for which the ED50 with Mus musculus was found to be 1.3 ug mouse-1. In assay [1], this compound returned an inhibition constant (Ki) of 1.3 µM. For `CC[C@H](C)[C@H](NC(=O)[C@@H](N)Cc1ccc(O)cc1)C(=O)O` (H-Tyr-Ile-OH), in that order: more than 50 ug mouse-1 and more than 1 µM. For H-KAYIL-OH, in that order: more than 50 ug mouse-1 and more than 10 µM.

Take `CC[C@H](C)[C@H](NC(=O)[C@H](Cc1ccc(O)cc1)NC(=O)[C@@H]1CCCN1C(=O)[C@@H](N)CCCN=C(N)N)C(=O)N[C@@H](CC(C)C)C(=O)O`: in the assay with Mus musculus, the ED50 stood at 0.0201 ug mouse-1. The compound also displayed a Ki in assay [1] of 0.073 µM. For `CC[C@H](C)[C@H](NC(=O)[C@H](Cc1ccc(O)cc1)NC(=O)[C@@H]1CCCN1C(=O)[C@@H](N)CCCN)C(=O)N[C@@H](CC(C)C)C(=O)O` (H-[Orn]PYIL-OH), in that order: 20 ug mouse-1 and 0.52 µM. Take `CC[C@H](C)[C@H](N)C(=O)N[C@@H](CC(C)C)C(=O)O` (H-Ile-Leu-OH): the ED50 in the assay on Mus musculus is more than 50 ug mouse-1. The compound further returned a Ki in assay [1] of more than 1 µM. The compound H-APYIL-OH displayed an ED50 in the assay on Mus musculus of less than 50 ug mouse-1. For the same compound, in assay [1], affinity was put at a Ki of 5.9 µM. On the same counts, the results for `CCC[C@H](N)C(=O)N1CCC[C@H]1C(=O)N[C@@H](Cc1ccc(O)cc1)C(=O)N[C@H](C(=O)N[C@@H](CC(C)C)C(=O)O)[C@@H](C)CC` (H-[Nva]PYIL-OH) are more than 50 ug mouse-1 and 3 µM.
